Data as given in US20240382438A1, “Calcium Channel Blockers and Methods Thereof” (University of Maryland, Eastern Shore, priority 2023, published 2024).
Entries after “also recorded” stand apart in the source; their conditions may differ.

What was measured:
[1] = tested on: differentiated ND7/23 cells; test: Intracellular calcium signals in differentiated ND7/23 cells stimulated with KCl or ionomycin; assay type: cell-based, mouse neuroblastoma and rat dorsal root ganglion cells
Procedure: FIGS. 14A-C. Effect of RHB121 on the intracellular calcium signals generated in differentiated ND7/23 cells following stimulation with 30 mM extracellular K+ ions or the calcium ionophore ionomycin (10 μM). FIG. 14A. […] FIG. 14B. […] FIG. 14C. Relative changes in the intracellular calcium signal generated in differentiated ND7/23 cells by 30 mM KCl or Ionomycin (10 μM) in control or RHB121-treated cells. Control groups were arbitrarily assigned a 100% intracellular calcium signal.
To assess the effect of RHB121 on intracellular calcium signals, differentiated ND7/23 cells with a high potassium concentration (30 mM KCl) were simulated. The effect of the calcium ionophore Ionomycin, which also can increase intracellular calcium by a different mechanism, independently of T-type Ca^2+ channel activation, was also tested. Stimulation of differentiated ND7/23 with 30 mM KCl external solution caused a small increase in the intracellular calcium signal (FIG. 14A).

human Cav3.2 = biological target: T1, human Cav3.2 (Homo sapiens, UniProt O95180); test: Whole-cell patch clamp of T-type Ca2+ currents in Cav3.2-stable transfected HEK 293 cells; assay type: cell-based; conditions: for Effect on whole cell capacitance / Effect on T-type Ca2+ current density: 50 μM; for Effect on T-type Ca2+ current density: vs non-treated cells
T1 construct: host or cells: HEK 293
Procedure: Certain exemplary embodiments have undergone target identification studies to discover a better officious T-type calcium blocker. The fourteen trifluoromethylated N-benzamide enaminone compounds were synthesized, purified, and structure confirmed using gas chromatography/mass spectroscopy, nuclear magnetic resonance, and elemental analysis. Preliminary in vitro whole cell patch clamp experiments were performed to assess the inhibitory effects of several target analogs on voltage-activated calcium currents in human embryonic kidney (HEK-293) cells. Cav3.2 transfected HEK 293 cells were treated with 50 μM of test compounds and compared to the control group (none pretreated HEK 293 cells).
(§1) ND7/23 cells are derived from the fusion of mouse neuroblastoma and rat dorsal root ganglion cells, which generates a more homogeneous sensory neuron-like cell population. ND7/23 cells were purchased from Sigma-Aldrich (RRID:CVCL_4259). Culture and differentiation of ND7/23 cells was performed as previously described. Briefly, ND7/23 cells were cultured in DMEM/F12 culture media (Millipore, Cat. #DF-041-B), supplemented with 0.5% fetal bovine serum (Invitrogen, Cat. #10437010), db-cAMP (1 mM, Sigma-Aldrich, Cat. #D0627), and nerve growth factor (NGF, 50 ng/mL, Sigma-Aldrich, Ca. #N2513). To remove any proliferating cells, cultures were treated with uridine (20 μM, Sigma-Aldrich, Cat. #U3003) and fluorodeoxyuridine (20 μM, Sigma-Aldrich, Cat. #F0503). Cells were maintained in differentiation media without uridine and fluorodeoxyuridin after induction of differentiation. ND7/23 cells were maintained in differentiation media for ≤6 days. HEK 293 cells that were stabled transfected with the human Cav3.2 and Cav3.3 channel subunits were a gift of Dr. E. Perez-Reyes (University of Virginia). Cav3.2 (or Cav3.3)-stabled transfected HEK 293 cells were culture in DMEM/F12 culture media, supplemented with 5% fetal bovine serum, 50 U/mL penicillin and 50 μg/mL streptomycin. ND7/23 and HEK 293 cells were grown in an incubator at 37° C. in the presence of 5% CO2/95% air humidified atmosphere. Cells passaged less than 20 times were used in this work. Cells were grown in poly-D-lysine-coated glass coverslips for electrophysiological recordings.
Whole cell recordings were performed as previously described. A Nikon Eclipse Ti inverted microscope equipped with Hoffman optics and epifluorescence filters was used to visualize individual cells. Recordings were performed at room temperature (22-24° C.) using glass electrodes made from thin wall borosilicate glass (3-5 MΩ). For electrophysiological recordings of inward Ca^2+ currents, outward K^+ currents were eliminated by equimolar substitution of K^+ with Cs^+ in the pipette solution, whereas inward Na^+ currents were eliminated by the use of TEA ions in the external solution, which are unable to go through voltage-gated Na^+ channels. The pipette solution consisted of (in mM) CsCl (120), MgCl2(2), HEPES (10), EGTA (10), ATP (1), and GTP (0.1), pH 7.4 with CsOH. The composition of the normal external saline used for measurements of Ca^2+ currents was (in mM): tetraethylammonium chloride (TEACl, 145), CaCl2 (10), MgCl2(1), HEPES (10), and glucose (5), pH 7.4 adjusted with CsOH. Ca^2+ currents were generated by applying a 200-500 ms-depolarizing step to various potentials from a holding potential of −100 mV. The external solution used to measure Na^+ currents contained (in mM) NaCl (145), KCl (5.3), CaCl2 (0.5), MgCl2 (5.7), HEPES (13), and glucose (5), pH 7.4 adjusted with KOH. The composition of the CsCl-pipette solution used to record Na^+ currents was the same describe above. Na^+ currents were generated by applying a 20 ms-depolarizing step to various potentials from a holding potential of −100 mV. To assess drug-evoked changes on specific ionic conductances, current amplitudes were expressed as current densities as previously reported. […]

[2] = tested on: LNCaP prostate cancer cells; test: XTT cell viability assay; assay type: cell-based; conditions: 50 μM, 48 hours
Excerpt: FIG. 15. Effect of RHB121, RHB62, and RHB95 on the cell viability of LNCaP prostate cancer cells. […] Cell viability was expressed as a percent of control LNCaP cells that received no treatment. Control groups were arbitrarily assigned a 100% viability value.
To assess the effect of RHB62, RHB95, and RHB121 on cell viability, the XTT assay was used.

[3] = tested on: voltage-activated Na^+ channels; test: Whole-cell recording of Na+ currents in differentiated ND7/23 cells; assay type: cell-based, mouse neuroblastoma and rat dorsal root ganglion cells; conditions: 50 μM
Procedure: as §1
Whole cell recordings were performed as previously described. A Nikon Eclipse Ti inverted microscope equipped with Hoffman optics and epifluorescence filters was used to visualize individual cells. Recordings were performed at room temperature (22-24° C.) using glass electrodes made from thin wall borosilicate glass (3-5 MΩ). For electrophysiological recordings of inward Ca^2+ currents, outward K^+ currents were eliminated by equimolar substitution of K^+ with Cs^+ in the pipette solution, whereas inward Na^+ currents were eliminated by the use of TEA ions in the external solution, which are unable to go through voltage-gated Na^+ channels. […] To assess drug-evoked changes on specific ionic conductances, current amplitudes were expressed as current densities as previously reported. […] Cell capacitance was determined by integrating the transient current evoked by a 10-mV voltage step from a holding potential of −60 mV.
A MULTICLAMP 700A amplifier and PCLAMP software (Axon Instruments) was used to deliver voltage commands and to perform data acquisition and analysis. […] Only cells with stable seals and series resistance (≤10 MΩ) were analyzed. […]

T1 sequence (O95180 whole entry): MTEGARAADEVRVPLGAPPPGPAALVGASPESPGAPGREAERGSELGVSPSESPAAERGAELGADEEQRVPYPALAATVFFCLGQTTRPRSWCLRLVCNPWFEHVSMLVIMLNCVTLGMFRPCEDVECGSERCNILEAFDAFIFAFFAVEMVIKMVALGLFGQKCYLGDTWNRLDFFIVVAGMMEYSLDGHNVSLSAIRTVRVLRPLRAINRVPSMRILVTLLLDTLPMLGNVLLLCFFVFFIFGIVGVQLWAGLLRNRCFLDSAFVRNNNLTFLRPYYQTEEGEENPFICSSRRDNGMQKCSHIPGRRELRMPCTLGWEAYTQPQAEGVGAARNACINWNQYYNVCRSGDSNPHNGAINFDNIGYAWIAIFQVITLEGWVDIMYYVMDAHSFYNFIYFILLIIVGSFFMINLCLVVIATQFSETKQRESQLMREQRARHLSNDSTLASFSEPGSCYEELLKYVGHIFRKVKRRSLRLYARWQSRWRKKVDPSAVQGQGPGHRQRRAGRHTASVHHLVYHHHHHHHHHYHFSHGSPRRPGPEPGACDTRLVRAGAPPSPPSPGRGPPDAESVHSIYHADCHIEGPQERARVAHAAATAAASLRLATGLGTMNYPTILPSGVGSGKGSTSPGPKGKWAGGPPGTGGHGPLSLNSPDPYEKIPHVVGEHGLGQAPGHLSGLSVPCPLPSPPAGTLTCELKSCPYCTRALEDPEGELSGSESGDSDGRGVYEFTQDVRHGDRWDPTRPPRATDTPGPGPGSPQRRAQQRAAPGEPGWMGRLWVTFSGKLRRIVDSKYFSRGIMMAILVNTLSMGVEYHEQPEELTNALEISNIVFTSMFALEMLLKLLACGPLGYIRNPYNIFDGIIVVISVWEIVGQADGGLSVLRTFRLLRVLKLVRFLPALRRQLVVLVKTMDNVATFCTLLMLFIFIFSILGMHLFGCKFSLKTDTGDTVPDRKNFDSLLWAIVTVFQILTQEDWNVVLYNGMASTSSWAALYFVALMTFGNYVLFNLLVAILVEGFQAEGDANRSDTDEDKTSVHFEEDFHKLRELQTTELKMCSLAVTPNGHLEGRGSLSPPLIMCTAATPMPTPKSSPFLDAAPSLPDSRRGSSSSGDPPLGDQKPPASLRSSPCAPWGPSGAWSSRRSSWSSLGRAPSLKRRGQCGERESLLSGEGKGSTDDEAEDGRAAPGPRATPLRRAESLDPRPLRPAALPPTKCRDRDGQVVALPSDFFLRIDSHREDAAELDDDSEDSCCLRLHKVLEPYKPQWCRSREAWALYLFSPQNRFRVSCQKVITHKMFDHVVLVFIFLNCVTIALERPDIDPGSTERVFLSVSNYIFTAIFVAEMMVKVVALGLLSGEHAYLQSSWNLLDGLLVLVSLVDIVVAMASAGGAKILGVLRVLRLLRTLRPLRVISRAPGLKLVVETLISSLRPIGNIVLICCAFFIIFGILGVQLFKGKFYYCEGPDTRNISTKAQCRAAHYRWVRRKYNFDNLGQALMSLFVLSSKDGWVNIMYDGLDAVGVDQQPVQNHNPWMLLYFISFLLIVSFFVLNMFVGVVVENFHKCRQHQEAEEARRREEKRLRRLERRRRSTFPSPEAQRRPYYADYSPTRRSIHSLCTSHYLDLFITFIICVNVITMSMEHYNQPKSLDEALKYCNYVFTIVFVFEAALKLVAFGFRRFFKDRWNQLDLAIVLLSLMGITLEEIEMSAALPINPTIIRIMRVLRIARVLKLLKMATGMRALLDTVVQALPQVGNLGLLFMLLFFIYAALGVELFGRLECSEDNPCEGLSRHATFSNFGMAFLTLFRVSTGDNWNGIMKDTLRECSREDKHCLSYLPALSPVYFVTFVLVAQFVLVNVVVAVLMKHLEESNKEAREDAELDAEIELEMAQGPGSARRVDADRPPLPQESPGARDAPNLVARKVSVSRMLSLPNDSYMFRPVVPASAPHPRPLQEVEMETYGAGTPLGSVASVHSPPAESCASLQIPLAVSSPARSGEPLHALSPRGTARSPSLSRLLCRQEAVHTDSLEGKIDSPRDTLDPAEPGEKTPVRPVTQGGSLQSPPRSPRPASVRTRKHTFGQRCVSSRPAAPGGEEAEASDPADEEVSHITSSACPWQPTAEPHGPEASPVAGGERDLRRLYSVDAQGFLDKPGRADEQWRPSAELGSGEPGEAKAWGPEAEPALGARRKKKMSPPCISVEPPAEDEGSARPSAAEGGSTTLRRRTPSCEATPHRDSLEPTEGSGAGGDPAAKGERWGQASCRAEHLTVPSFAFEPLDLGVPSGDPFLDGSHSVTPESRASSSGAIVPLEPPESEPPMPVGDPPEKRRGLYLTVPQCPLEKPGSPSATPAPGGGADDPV

Row | Structure (SMILES) | Change in intracellular calcium signal on stimulation ([1]; 10 μM, control cells) | Effect on whole cell capacitance (human Cav3.2; HEK 293-Cav3.2 cells) | Effect on T-type Ca2+ current density (human Cav3.2; HEK 293-Cav3.2 cells) | Effect on cell viability (XTT assay) [2] | Effect on T-type Ca2+ current density (human Cav3.2; HEK 293-Cav3.2 cells, listed as RHB-95) | Effect on Na+ current density [3] | Effect on activation time constant (τ) (human Cav3.2; 10 μM) | Shift of the steady-state inactivation curve (human Cav3.2; 10 μM) | Effect on whole cell capacitance (human Cav3.2; HEK 293-Cav3.2 cells, listed as RHB 121) | inhibition at 50 µM (human Cav3.2; HEK293, 50 μM, Cav3.2 transfected HEK 293 cells, read-out: Inhibition of calcium currents on T-type calcium channels) [%] | Concentration dependence of the inhibition of T-type Ca2+ currents (human Cav3.2; HEK 293-Cav3.2 cells) | Effect on intracellular calcium signal evoked with 30 mM KCl ([1]; 50 μM pre-treatment) | Effect on intracellular calcium signal evoked with Ionomycin (10 μM) ([1]; 50 μM pre-treatment)
1 | C[C@H](CCC(=O)O)C[C@H](C)C[C@H](C)C(=O)/C=C(\O)[C@H](C)C[C@H](C)C/C=C/[C@@H](C)[C@@H](O)[C@@H](C)[C@@H](O)C[C@@H]1CC[C@@](C)([C@H]2CC[C@@](C)([C@@H](C)O)O2)O1 [Ionomycin, reference compound] | significant increase | – | – | – | – | – | – | – | – | – | – | – | –
2 | Cc1cc(C)cc(C(=O)NC2=CC(=O)CC(C(F)(F)F)C2)c1 (stereo not shown) [RHB62] | – | no significant changes; also recorded: no effect on cell capacitance | significant reduction; also recorded: reduction in the Ca^+2 current, with lower potency than RHB-77 | do not affect the cell viability; also recorded: no effect on the cell viability | – | – | – | – | – | – | – | – | –
3 | O=C1C=C(NC(=O)c2cccc(C(F)(F)F)c2)CC(C(F)(F)F)C1 (stereo not shown) [RHB95] | – | no significant changes; also recorded: no effect on cell capacitance | significant reduction | do not affect the cell viability; also recorded: no effect on the cell viability | No inhibitory effect | – | – | – | – | – | – | – | –
4 | O=C1C=C(NC(=O)c2cccc(OC(F)(F)F)c2)CC(C(F)(F)F)C1 (stereo not shown) [RHB121, N-(3-oxo-5-(trifluoromethyl)cyclohex-1-en-1-yl)-3-(trifluoromethoxy)benzamide] | – | no effect on cell capacitance | significant reduction | do not affect the cell viability; also recorded: no effect on the cell viability | – | does not affect; also recorded: no effect on the Na^+ current densities | does not alter; also recorded: no effect | leftward shift | no significant changes | ~100 | concentration-dependent | complete inhibition; also recorded: significant reduction | still evoked a significant response; also recorded: significant reduction
